For 14 molecules, Ki and IC50 results are on record in patent US20250270172A1, “Pyrimidine Derivatives As Modulators of the 5-HT2A Serotonin Receptor Useful For The Treatment of Disorders Related Thereto” (Arena Pharmaceuticals, Inc., priority 2020, published 2025).

Test [1] has as its target T1, 5-HT2A (Homo sapiens (Human), UniProt P28223). Kind of test: Radioligand binding assay, [^3H]5-HT competition, 5-HT2A. Particulars: [^3H]5-HT radioligand, membranes of HEK293 cells expressing recombinant 5-HT2A; Ki from IC50 by Cheng-Prusoff; read-out: 5-HT2A serotonin binding Ki value.
Test [2] concerns the target T1, 5-HT2A. The test is described as follows: HTRF IP-One antagonist assay, 5-HT2A.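 Further: clonal line with low receptor density (about 50–70 fmol/mg), 10-point dose-response from 10 µM in 5-fold steps, HTRF detection after 1 hr, triplicate points.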 Type of test: cell-based. Particulars: HEK293 cells stably expressing receptor, inositol phosphate accumulation, 80 nM 5-HT in Assay Buffer. (TR-FRET usually uses a lanthanide donor and a delayed reading to cut background.)
The target of a further test is 5-HT2B (Homo sapiens (Human), UniProt P41595). The test is described as follows: HTRF IP-One antagonist assay, 5-HT2B.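 Further: clonal HEK293 line with low 5-HT2B expression (estimated 150-200 fmol/mg by radioligand binding), IP-One HTRF readout, 10-point curves from 10 µM in 5-fold steps, triplicate points.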 Type of test: cell-based. Particulars: HEK293 cells stably expressing receptor, inositol phosphate accumulation, 80 nM 5-HT in Assay Buffer.
Another test deals with 5-HT2C (Homo sapiens (Human), UniProt P28335). Kind of test: HTRF IP-One antagonist assay, 5-HT2C.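 Further: clonal HEK293 line with low 5-HT2C density (10–20 fmol/mg), HTRF detection of IP-One, 10-point dose curves from 10 µM in 5-fold steps, triplicate points.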 The format is cell-based. To be noted: HEK293 cells stably expressing receptor, inositol phosphate accumulation, 80 nM 5-HT in Assay Buffer.

The structures appear in SMILES notation. “And” between values parts separate entries of the source, which are not always exact repeats. Equal values may be shown once.

T1 sequence (P28223 whole entry): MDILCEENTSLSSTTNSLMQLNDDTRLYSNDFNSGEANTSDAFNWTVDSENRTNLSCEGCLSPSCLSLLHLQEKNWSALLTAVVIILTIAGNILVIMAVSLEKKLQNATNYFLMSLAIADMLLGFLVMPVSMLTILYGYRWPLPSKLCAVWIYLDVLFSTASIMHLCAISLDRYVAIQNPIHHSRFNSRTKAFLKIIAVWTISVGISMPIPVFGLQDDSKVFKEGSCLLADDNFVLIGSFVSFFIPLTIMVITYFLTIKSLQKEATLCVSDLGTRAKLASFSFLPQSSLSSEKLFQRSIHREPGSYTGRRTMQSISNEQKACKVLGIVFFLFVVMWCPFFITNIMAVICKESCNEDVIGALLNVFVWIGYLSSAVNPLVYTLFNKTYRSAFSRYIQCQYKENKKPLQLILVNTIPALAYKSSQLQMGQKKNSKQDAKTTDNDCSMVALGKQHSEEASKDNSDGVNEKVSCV
Chain of 5-HT2C (P28335 33-458): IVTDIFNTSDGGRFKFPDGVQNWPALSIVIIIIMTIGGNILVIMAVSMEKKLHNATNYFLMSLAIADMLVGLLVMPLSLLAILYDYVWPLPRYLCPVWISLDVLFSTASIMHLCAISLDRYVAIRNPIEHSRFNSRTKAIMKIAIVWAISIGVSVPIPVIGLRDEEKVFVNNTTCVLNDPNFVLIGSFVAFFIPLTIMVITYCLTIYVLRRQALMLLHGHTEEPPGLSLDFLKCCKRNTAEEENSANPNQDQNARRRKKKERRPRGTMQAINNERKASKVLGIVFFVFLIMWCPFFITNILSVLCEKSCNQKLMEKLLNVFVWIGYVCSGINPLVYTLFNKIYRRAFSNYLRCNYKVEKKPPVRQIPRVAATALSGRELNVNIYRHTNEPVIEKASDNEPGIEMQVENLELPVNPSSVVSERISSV
Chain of 5-HT2B (P41595 whole entry): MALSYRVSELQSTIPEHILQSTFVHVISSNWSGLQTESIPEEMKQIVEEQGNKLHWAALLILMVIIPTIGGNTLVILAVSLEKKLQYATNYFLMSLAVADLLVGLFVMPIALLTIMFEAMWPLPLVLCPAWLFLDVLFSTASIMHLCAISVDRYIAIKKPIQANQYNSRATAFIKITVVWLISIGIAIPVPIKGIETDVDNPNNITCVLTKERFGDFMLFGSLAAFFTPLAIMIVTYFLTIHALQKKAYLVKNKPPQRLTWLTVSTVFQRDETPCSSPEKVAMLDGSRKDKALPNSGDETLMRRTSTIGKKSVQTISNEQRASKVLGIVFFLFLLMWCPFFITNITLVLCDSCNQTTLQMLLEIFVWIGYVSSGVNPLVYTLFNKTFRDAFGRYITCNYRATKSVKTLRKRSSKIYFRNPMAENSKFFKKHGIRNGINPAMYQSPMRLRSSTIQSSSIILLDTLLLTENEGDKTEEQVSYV

Usually Ki stands for the equilibrium dissociation constant of an inhibitor or competing ligand from its target. The term IC50 denotes the concentration that gives 50% inhibition. Lower therefore signals greater potency in that assay. As to `Cc1ncnc(C)c1-c1cc(NC(=O)c2ccccc2F)ccc1OCCN1CCC1` [Compound 319, N-(4-(2-(azetidin-1-yl)ethoxy)-3-(4,6-dimethylpyrimidin-5-yl)phenyl)-2-fluorobenzamide], the Ki at 5-HT2A [1] was 0.00362 µM. For the same molecule, the IC50 was 0.0143 µM on 5-HT2A [2], 2.36 µM at 5-HT2B and 100 µM on 5-HT2C.
For `Cc1ncnc(C)c1-c1cc(NC(=O)c2cccc(C#N)c2)ccc1OCCN1CCC1` [Compound 325, N-(4-(2-(azetidin-1-yl)ethoxy)-3-(4,6-dimethylpyrimidin-5-yl)phenyl)-3-cyanobenzamide] the same measures were 0.0017 µM, 0.00854 µM, 2.89 µM and 100 µM.
Taken in the same sequence, the figures for `Cc1ncnc(C)c1-c1cc(NC(=O)C2CC2)ccc1OCCN1CCC1` [Compound 344, N-(4-(2-(azetidin-1-yl)ethoxy)-3-(4,6-dimethylpyrimidin-5-yl)phenyl)cyclopropanecarboxamide] were 0.00653 µM, 0.0102 µM, 1.21 µM and 100 µM.
For `COC1CCN(CCOc2ccc(NC(=O)C3CC3)cc2-c2c(C)ncnc2C)CC1` [Compound 351, N-(3-(4,6-dimethylpyrimidin-5-yl)-4-(2-(4-methoxypiperidin-1-yl)ethoxy)phenyl)cyclopropanecarboxamide], at 5-HT2A [1], the Ki was determined as 0.00456 µM. Also, the IC50 on 5-HT2A [2] stood at 0.00703 µM; against 5-HT2B, 100 µM; at 5-HT2C, 100 µM.
On to `CO[C@@H]1CCN(CCOc2ccc(NC(=O)C3CC3)cc2-c2c(C)ncnc2C)C1` [Compound 353, (R)—N-(3-(4,6-dimethylpyrimidin-5-yl)-4-(2-(3-methoxypyrrolidin-1-yl)ethoxy)phenyl)cyclopropanecarboxamide], for which the Ki at 5-HT2A [1] amounted to 0.00406 µM. Further, the IC50 against 5-HT2A [2] was determined as 0.0248 µM; on 5-HT2B it was 100 µM; against 5-HT2C, 100 µM.
For the molecule `COCCNCCOc1ccc(NC(=O)C2CC2)cc1-c1c(C)ncnc1C` [Compound 361, N-(3-(4,6-dimethylpyrimidin-5-yl)-4-(2-((2-methoxyethyl)amino)ethoxy)phenyl)cyclopropanecarboxamide], the Ki at 5-HT2A [1] was found to be 0.00433 µM. The IC50 at 5-HT2A [2] was 0.00927 µM; on 5-HT2B, 100 µM; against 5-HT2C, 100 µM.
`Cc1ncnc(C)c1-c1cc(NC(=O)C2CC2)ccc1OC1CNC1` [Compound 396, N-[4-(azetidin-3-yloxy)-3-(4,6-dimethylpyrimidin-5-yl)phenyl]cyclopropanecarboxamide]: the Ki on 5-HT2A [1] was found to be 0.00593 µM. Also, the values for the half-inhibitory concentration (IC50) on 5-HT2A [2], against 5-HT2B and against 5-HT2C were 0.0505 µM, 100 µM and 100 µM, respectively.
As for `Cc1ncnc(C)c1-c1cc(NC(=O)C2(F)CC2)ccc1OC1CNC1` [Compound 398, N-(4-(azetidin-3-yloxy)-3-(4,6-dimethylpyrimidin-5-yl)phenyl)-1-fluorocyclopropane-1-carboxamide], the Ki at 5-HT2A [1] worked out at 0.00626 µM. Besides, the IC50 against 5-HT2A [2] is 0.0338 µM; against 5-HT2B, 100 µM; against 5-HT2C, 100 µM.
Regarding `Cc1ncnc(C)c1-c1cc(NC(=O)c2ccccc2)ccc1OC1CNC1` [Compound 400, N-(4-(azetidin-3-yloxy)-3-(4,6-dimethylpyrimidin-5-yl)phenyl)benzamide], on 5-HT2A [1], the Ki stood at 0.0042 µM. In addition, the IC50 against 5-HT2A [2] turned out to be 0.0386 µM; against 5-HT2B it was 100 µM; against 5-HT2C it was 100 µM.
`Cc1ncnc(C)c1-c1cc(NC(=O)[C@@H]2C[C@H]2F)ccc1O[C@@H]1CCCNC1` [Compound 409, (1S,2R)—N-(3-(4,6-dimethylpyrimidin-5-yl)-4-(((R)-piperidin-3-yl)oxy)phenyl)-2-fluorocyclopropane-1-carboxamide]: the Ki at 5-HT2A [1] was determined as 0.00667 µM. The IC50 was determined as 0.0189 µM against 5-HT2A [2], 2.92 µM against 5-HT2B and 100 µM on 5-HT2C.
`Cc1ncnc(C)c1-c1cc(NC(=O)C2(F)CC2)ccc1OC[C@H]1CCCCN1` [Compound 438, N-[3-(4,6-dimethylpyrimidin-5-yl)-4-[[(2R)-2-piperidyl]methoxy]phenyl]-1-fluoro-cyclopropanecarboxamide]: the Ki on 5-HT2A [1] was found to be 0.00918 µM. The IC50 against 5-HT2A [2] was 0.0164 µM; against 5-HT2B, 100 µM; on 5-HT2C it was 100 µM.
`Cc1ncnc(C)c1-c1cc(NC(=O)C2(F)CCC2)ccc1OC[C@H]1CCCCN1` [Compound 444, (R)—N-(3-(4,6-dimethylpyrimidin-5-yl)-4-(piperidin-2-ylmethoxy)phenyl)-1-fluorocyclobutane-1-carboxamide]: the Ki on 5-HT2A [1] was 0.00493 µM. In addition, the IC50 against 5-HT2A [2] is 0.0118 µM; on 5-HT2B, 100 µM; against 5-HT2C, 100 µM.
`CCOC1CC1C(=O)Nc1ccc(OC[C@H]2CCCCN2)c(-c2c(C)ncnc2C)c1` (stereo partly drawn) [Compound 447, N-(3-(4,6-dimethylpyrimidin-5-yl)-4-(((R)-piperidin-2-yl)methoxy)phenyl)-2-ethoxycyclopropane-1-carboxamide]: the Ki at 5-HT2A [1] was 0.00708 µM and 0.0196 µM. Also, the IC50 worked out at 0.00905 µM on 5-HT2A [2], 100 µM against 5-HT2B and 100 µM at 5-HT2C.
For the molecule `COCCNCCOc1ccc(NC(=O)C2(F)CC2)cc1-c1c(C)ncnc1C` [Compound 453, N-(3-(4,6-dimethylpyrimidin-5-yl)-4-(2-((2-methoxyethyl)amino)ethoxy)phenyl)-1-fluorocyclopropane-1-carboxamide], on 5-HT2A [1], the Ki is 0.00476 µM. The IC50 on 5-HT2A [2] came to 0.00484 µM; at 5-HT2B, 100 µM; against 5-HT2C it was 100 µM.
